Patent publication US10786484B2, “Mono- or di-substituted indole derivatives as dengue viral replication inhibitors” (Janssen Pharmaceuticals, Inc., priority 2015, dated 2020)

How the values were obtained:
[1] = system: DENV-2 16681 strain labeled with eGFP; assay: DENV-2 antiviral assay (eGFP fluorescence read-out in Vero cells); format: cell-based, Dengue virus; conditions: DENV-2 16681 eGFP, MOI 0.5, 3 days
Procedure: The antiviral activity of all the compounds of the invention was tested against the DENV-2 16681 strain which was labeled with enhanced green fluorescent protein (eGPF). The culture medium consists of minimal essential medium supplemented with 2% of heat-inactivated fetal calf serum, 0.04% gentamycin (50 mg/mL) and 2 mM of L-glutamine. Vero cells, obtained from ECACC, were suspended in culture medium and 25 μL was added to 384-well plates (2500 cells/well), which already contain the antiviral compounds. Typically, these plates contain a 5-fold serial dilution of 9 dilution steps of the test compound at 200 times the final concentration in 100% DMSO (200 nL). […] Finally, each plate contains wells which are assigned as virus controls (containing cells and virus in the absence of compound), cell controls (containing cells in the absence of virus and compound) and medium controls (containing medium in the absence of cells, virus and compounds). To the wells assigned as medium control, 25 μL of culture medium was added instead of Vero cells. Once the cells were added to the plates, the plates were incubated for 30 minutes at room temperature to allow the cells to distribute evenly within the wells. Next, the plates were incubated in a fully humidified incubator (37° C., 5% CO2) until the next day. Then, DENV-2 strain 16681, labeled with eGFP, was added at a multiplicity of infection (MOI) of 0.5. Therefore, 15 μL of virus suspension was added to all the wells containing test compound and to the wells assigned as virus control. In parallel, 15 μL of culture medium was added to the medium and cell controls. Next, the plates were incubated for 3 days in a fully humidified incubator (37° C., 5% CO2). At the day of the read out, the eGFP fluorescence was measured using an automated fluorescence microscope at 488 nm (blue laser). Using an in-house LIMS system, inhibition dose response curves for each compound were calculated and the half maximal effective concentration (EC50) was determined. Therefore, the percent inhibition (I) for every test concentration is calculated using the following formula: I=100*([…])/(SVC−SCC); ST, SCC and SVC are the amount of eGFP signal in the test compound, cell control and virus control wells, respectively. The EC50 represents the concentration of a compound at which the virus replication is inhibited with 50%, as measured by a 50% reduction of the eGFP fluorescent intensity compared to the virus control. The EC50 is calculated using linear interpolation (Table 1).

Vero cells = conditions: African green monkey
DENV-1 strain TC974#666 = assay: Tetravalent RT-qPCR assay Protocol A, serotype 1; format: cell-based; conditions: Dengue virus, DENV1, 72 h; RT-qPCR serotype 1 TC974#666, Vero cells, day 3
Procedure: (§1) The antiviral activity of the compounds of the invention was tested against DENV-1 strain TC974#666 (NCPV), DENV-2 strain 16681, DENV-3 strain H87 (NCPV) and DENV-4 strains H241 (NCPV) and EDEN (SG/06K2270DK1/2005; GenBank accession number QG398256) in a RT-qPCR assay. Therefore, Vero cells were infected with either DENV-1, or -2, or -3, or -4 in the presence or absence of test compounds. At day 3 post-infection, the cells were lysed and cell lysates were used to prepare cDNA of both a viral target (the 3′UTR of DENV; Table 2) and a cellular reference gene (β-actin, Table 2). Subsequently, a duplex real time PCR was performed on a Lightcycler480 instrument. The generated Cp value is inversely proportional to the amount of RNA expression of these targets. Inhibition of DENV replication by a test compound results in a shift of Cp's for the 3′UTR gene. On the other hand, if a test compound is toxic to the cells, a similar effect on β-actin expression will be observed. The comparative ΔΔCp method is used to calculate EC50, which is based on the relative gene expression of the target gene (3′UTR) normalized with the cellular housekeeping gene (β-actin). In addition, CC50 values are determined based on the Cp values acquired for the housekeeping gene β-actin.
(§2) The culture medium consisted of minimal essential medium supplemented with 2% of heat-inactivated fetal calf serum, 0.04% gentamycin (50 mg/mL) and 2 mM of L-glutamine. Vero cells, obtained from ECACC, were suspended in culture medium and 75 μL/well was added in 96-well plates (10000 cells/well), which already contain the antiviral compounds. […] In addition, each plate contains wells which are assigned as virus controls (containing cells and virus in the absence of compound) and cell controls (containing cells in the absence of virus and compound). Once the cells were added in the plates, the plates were incubated in a fully humidified incubator (37° C., 5% CO2) until the next day. Dengue viruses serotype-1, 2, 3 and 4 were diluted in order to obtain a Cp of ˜22-24 in the assay. Therefore, 25 μL of virus suspension, was added to all the wells containing test compound and to the wells assigned as virus control. In parallel, 25 μL of culture medium was added to the cell controls. Next, the plates were incubated for 3 days in a fully humidified incubator (37° C., 5% CO2). After 3 days, the supernatant was removed from the wells and the cells were washed twice with ice-cold PBS (−100 μL). The cell pellets within the 96-well plates were stored at −80° C. for at least 1 day. Next, RNA was extracted using the Cells-to-CT™ lysis kit, according to the manufacturer's guideline (Life Technologies). The cell lysates can be stored at −80° C. or immediately used in the reverse transcription step.
(§3) In preparation of the reverse transcription step, mix A (table 3A) was prepared and 7.57 μL/well was dispensed in a 96-well plate. After addition of 5 μL of the cell lysates, a five minute denaturation step at 75° C. was performed (table 3B). Afterwards, 7.43 μL of mix B was added (table 3C) and the reverse transcription step was initiated (table 3D) to generate cDNA.
(§4) Finally, a RT-qPCR mix was prepared, mix C (table 4A), and 22.02 μL/well was dispensed in 96-well LightCycler qPCR plates to which 3 μL of cDNA was added and the qPCR was performed according to the conditions in table 4B on a LightCycler 480.
(§5) Using the LightCycler software and an in-house LIMS system, dose response curves for each compound were calculated and the half maximal effective concentration (EC50) and the half maximal cytotoxic concentration (CC50) were determined (Tables 5-8).

DENV-2 strain 16681 = assay: Tetravalent RT-qPCR assay Protocol A, serotype 2; format: cell-based; conditions: Dengue virus, DENV2, 72 h; RT-qPCR serotype 2 16681, Vero cells, day 3
Procedure: as §1, §2, §3, §4, §5

DENV-3 strain H87 = assay: Tetravalent RT-qPCR assay Protocol A, serotype 3; format: cell-based; conditions: Dengue virus, DENV3, 72 h; RT-qPCR serotype 3 H87, Vero cells, day 3
Procedure: as §1, §2, §3, §4, §5

DENV-4 strain H241 = assay: Tetravalent RT-qPCR assay Protocol A, serotype 4 H241; format: cell-based; conditions: Dengue virus, DENV4, 72 h; RT-qPCR serotype 4 H241, Vero cells, day 3
Procedure: as §1, §2, §3, §4, §5

SMILES	EC50 [1]	CC50 (Vero cells)	EC50 (DENV-1 strain TC974#666)	EC50 (DENV-2 strain 16681)	EC50 (DENV-3 strain H87)	EC50 (DENV-4 strain H241)
COc1cc(NC(C(=O)c2c[nH]c3c(C)cc(Cl)cc23)c2ccc(F)cc2OCCO)cc(S(C)(=O)=O)c1 (single isomer, unassigned) [Compound 9B, 1-(5-chloro-7-methyl-1H-indol-3-yl)-2-(4-fluoro-2-(2-hydroxyethoxy)phenyl)-2-((3-methoxy-5-(methylsulfonyl)phenyl)amino)ethanone]	51 nM	13000 nM	–	–	–	–
COc1cc(NC(C(=O)c2c[nH]c3cc(F)c(C)cc23)c2ccc(F)cc2OCCO)cc(S(C)(=O)=O)c1 (single isomer, unassigned) [Compound 7B, 2-(4-fluoro-2-(2-hydroxyethoxy)phenyl)-1-(6-fluoro-5-methyl-1H-indol-3-yl)-2-((3-methoxy-5-(methylsulfonyl)phenyl)amino)ethanone]	36 nM	8000 nM	–	–	–	–
COc1cc(NC(C(=O)c2c[nH]c3c(F)cc(C)cc23)c2ccc(F)cc2OCCO)cc(S(C)(=O)=O)c1 (single isomer, unassigned) [Compound 8B, 2-(4-fluoro-2-(2-hydroxyethoxy)phenyl)-1-(7-fluoro-5-methyl-1H-indol-3-yl)-2-((3-methoxy-5-(methylsulfonyl)phenyl)amino)ethanone]	48 nM	8200 nM	–	–	–	–
COc1cc(NC(C(=O)c2c[nH]c3cc(OC)c(C)cc23)c2ccc(F)cc2OCCO)cc(S(C)(=O)=O)c1 (single isomer, unassigned) [Compound 6B, 2-(4-fluoro-2-(2-hydroxyethoxy)phenyl)-2-((3-methoxy-5-(methylsulfonyl)phenyl)amino)-1-(6-methoxy-5-methyl-1H-indol-3-yl)ethanone]	160 nM	13000 nM	–	–	–	–
COc1cc(NC(C(=O)c2c[nH]c3cc(F)c(F)cc23)c2ccc(F)cc2OCCO)cc(S(C)(=O)=O)c1 (single isomer, unassigned) [Compound 5B, 1-(5,6-difluoro-1H-indol-3-yl)-2-(4-fluoro-2-(2-hydroxyethoxy)phenyl)-2-((3-methoxy-5-(methylsulfonyl)phenyl)-amino)ethanone]	16 nM	11000 nM	–	–	–	–
COc1cc(NC(C(=O)c2c[nH]c3c(C)c(F)ccc23)c2ccc(F)cc2OCCO)cc(S(C)(=O)=O)c1 (single isomer, unassigned) [Compound 3B, 2-(4-fluoro-2-(2-hydroxyethoxy)phenyl)-1-(6-fluoro-7-methyl-1H-indol-3-yl)-2-((3-methoxy-5-(methylsulfonyl)phenyl)amino)ethanone]	29 nM	11000 nM	–	–	–	–
COc1cc(NC(C(=O)c2c[nH]c3cc(OC)c(OC(F)(F)F)cc23)c2ccc(F)cc2OCCO)cc(S(C)(=O)=O)c1 (single isomer, unassigned) [Compound 11A, 2-(4-fluoro-2-(2-hydroxyethoxy)phenyl)-2-((3-methoxy-5-(methyl-sulfonyl)phenyl)amino)-1-(6-methoxy-5-(trifluoromethoxy)-1H-indol-3-yl)ethanone]	19 nM	12000 nM	–	–	–	–
COc1cc(NC(C(=O)c2c[nH]c3c(F)cc(C)cc23)c2ccc(F)cc2OCCO)cc(S(C)(=O)=O)c1 (single isomer, unassigned) [Compound 8A, 2-(4-fluoro-2-(2-hydroxyethoxy)phenyl)-1-(7-fluoro-5-methyl-1H-indol-3-yl)-2-((3-methoxy-5-(methylsulfonyl)phenyl)amino)ethanone]	1.1 nM	3400 nM	2.3 nM	1.4 nM	36 nM	220 nM
COc1cc(NC(C(=O)c2c[nH]c3cc(F)ccc23)c2ccc(F)cc2OCCO)cc(S(C)(=O)=O)c1 (single isomer, unassigned) [Compound 1B, 1-(6-fluoro-1H-indol-3-yl)-2-(4-fluoro-2-(2-hydroxyethoxy)phenyl)-2-((3-methoxy-5-(methylsulfonyl)phenyl)amino)ethanone]	85 nM	13000 nM	–	–	–	–
COc1cc(NC(C(=O)c2c[nH]c3c(C)cc(OC(F)(F)F)cc23)c2ccc(F)cc2OCCO)cc(S(C)(=O)=O)c1 (single isomer, unassigned) [Compound 12B, 2-(4-fluoro-2-(2-hydroxyethoxy)phenyl)-2-((3-methoxy-5-(methylsulfonyl)phenyl)amino)-1-(7-methyl-5-(trifluoromethoxy)-1H-indol-3-yl)ethanone]	1.2 nM	9900 nM	–	–	–	–
COc1cc(NC(C(=O)c2c[nH]c3c(C)c(Cl)ccc23)c2ccc(F)cc2OCCO)cc(S(C)(=O)=O)c1 (single isomer, unassigned) [Compound 4A, 1-(6-chloro-7-methyl-1H-indol-3-yl)-2-(4-fluoro-2-(2-hydroxyethoxy)phenyl)-2-((3-methoxy-5-(methylsulfonyl)phenyl)amino)ethanone]	11 nM	11000 nM	–	–	–	–
COc1cc(NC(C(=O)c2c[nH]c3cc(Cl)ccc23)c2ccc(F)cc2OCCO)cc(S(C)(=O)=O)c1 (single isomer, unassigned) [Compound 2B, 1-(6-chloro-1H-indol-3-yl)-2-(4-fluoro-2-(2-hydroxyethoxy)phenyl)-2-((3-methoxy-5-(methylsulfonyl)phenyl)amino)-ethanone]	21 nM	12000 nM	–	–	–	–
COc1cc(NC(C(=O)c2c[nH]c3ccc(OC(F)(F)F)cc23)c2ccc(F)cc2OCCO)cc(S(C)(=O)=O)c1 (single isomer, unassigned) [Compound 10A, 2-(4-fluoro-2-(2-hydroxyethoxy)phenyl)-2-((3-methoxy-5-(methylsulfonyl)phenyl)amino)-1-(5-(trifluoromethoxy)-1H-indol-3-yl)ethanone]	20 nM	12000 nM	–	–	–	–
